{
  "source": "patent US10166271B2",
  "about": "“Methods for promoting hair growth” (THE REGENTS OF THE UNIVERSITY OF CALIFORNIA, priority 2006, dated 2019)",
  "key": {"CRF-OE mice": {"system": "CRF-OE mice", "assay": "Hair growth and skin pigmentation after sc injection in adult alopecic CRF-OE mice (Example 1)", "assay_type": "in vivo", "conditions": "for Back Hair Growth Score (BK) / Skin pigmentation (Pg) score: score 0-10, individual mice", "description": "Adult (6-9 month old) male and female C57BL/6 mice that overexpress a rat CRF transgene (Stenzel-Poore et al., Endocrinol., 130:3378-3386, 1992) were used in this Example. […] Moreover, these animals display physical changes, such as excess abdominal fat accumulation, muscle atrophy, thin skin, and alopecia on the back and ventral abdomen area. Alopecia in these animals develops after about 7-8 weeks of age and is fully developed at about 4 months of age. This phenotype, i.e., hair loss in adulthood, is similar to that observed in some forms of human alopecia (e.g., the age-dependent balding of adult, human males (and females)).\nCRF-OE mice were housed in standard plastic cages in a controlled environment (temperature=21-23° C.; humidity=30-35%; 12-hour light cycle with lights on 06:00 AM) and fed a standard rodent diet (PROLAB™ RMH 2500). Experiments were conducted in accordance with institutional guidelines.\nEight (8) male and 9 female CRF-OE mice were injected subcutaneously with 5 μg/mouse astressin B or astressin 2B, in 0.1 ml sterile water, once per day for 5 consecutive days. Similar doses of astressin B and astressin 2B previously were shown, respectively, to inhibit elevated ACTH release in adrenalectomized rats for over 12 hours (Rivier et al., J. Med. Chem., 42:3175-3182, 1999) and delay gastric emptying for over 6 hours (Rivier et al., J. Med. Chem., 45:4737-4747, 2002). […] CRF-OE mice similarly injected with saline alone were used as negative controls. Astressin B and astressin 2B peptides were synthesized as previously described (Rivier et al., J. Med. Chem., 45:4737-4747, 2002; Gulyas et al., Proc. Natl. Acad. Sci. USA, 92:10575-10579, 1995) and were diluted with sterile water immediately preceding each injection.\nIt appeared that hair growth (if any) typically was completed by 4 weeks post-treatment.\nHair growth in CRF-OE mice was assessed using the hair growth scale developed by Vegesna et al. […], 2002) modified to account for phenotypic differences between CRF-OE mice. Scores were made visually as well as using photographs of each mouse at a weekly interval. The degree of alopecia varied between individual CRF-OE mice; thus, the percent difference between the amount of hair present in the test area (described below) before and 4 weeks after treatment was converted to a score of 0-10. A zero score corresponded to a no change in the amount of hair in the test area and a score of 10 corresponded to full hair growth in the entire test area. The scale for monitoring hair growth in CRF-OE mice is more particularly described in Table 2.\nThe area was defined anteriorly by a line joining the front of the ears; posteriorly by a line joining the pelvic girdles; and laterally, between the lines projecting caudally from each ear root.\nPigmentation of the skin (also referred to as skin color) in the test region was also measured because, in C57BL/6 mice, the skin darkens at the onset of hair growth. A pigmentation score from 0-10 was given to each mouse with a score of 0 corresponding to bright pink skin color/pigment in the entire test region, a score of 1-5 corresponding to increasing intensity of a pale greyish color/pigment of skin in the test region, a score of 6-9 corresponding to increasing but non-confluent darker color/pigment of skin in the test region, and a score of 10 corresponding to black pigmentation of the entire test region. Pigmentation was measured one week after the fifth and final injection because changes (if any) in pigmentation are substantially complete by that time."}, "[1]": {"system": "hair follicles of CRF-OE mice", "assay": "Histology of dorsal skin hair follicles (H/E) in CRF-OE mice (Example 3)", "assay_type": "in vivo", "conditions": "for Hair follicle morphology: H/E-stained skin sections of adult CRF-OE mice; for Skin thickness or hair follicle numbers versus wild type mice: adult CRF-OE mice", "description": "Wild-type (C57BL/6) mice, saline-treated CRF-OE mice, CRF-OE mice treated with astressin B or astressin 2B as described in Example 1 (sc injection), and adult CRF-OE mice treated with astressin 2B as described in Example 2 (ip injection), were euthanized, Male mice were used in each case. Whole dorsal skin pieces were harvested for histology four weeks after the final sc injection of the respective peptides or two weeks after ip astressin B or saline injection.\nSkin samples were fixed in 4% paraformaldehyde. Paraffin-embedded sections were processed for staining of hematoxylin/eosin and examined by light microscopy. The thickness of the epidermis plus dermis and depth of hair follicles were measured and the number of hair follicles was counted per unit (a field obtained with 10× objective) in a total of 5 units per section."}, "young CRF-OE mice [2]": {"system": "young CRF-OE mice", "assay": "Prevention of hair loss in young (not-yet-alopecic) CRF-OE mice, sc injection (Example 4)", "assay_type": "in vivo", "conditions": "for Back Hair Score (BK) / Skin pigmentation (Pg) score / Ventral Abdomen Hair Score (VAb): sc 5 μg/mouse/day x 5 days, individual mice and group mean; for Back Hair Score (BK) / Skin pigmentation (Pg) score / Ventral Abdomen Hair Score (VAb) / Induction of skin pigmentation / Hair loss / development of alopecia: young CRF-OE mice; for Induction of skin pigmentation: first week post injection; for Hair loss / development of alopecia: week 4 to week 16 post treatment", "method": "Alopecia in this strain fully develops in adulthood at approximately 12 weeks and older.\nYoung CRF-OE mice (5-6 weeks old) were treated with astressin B, astressin 2B, or vehicle (saline). Treatments were a single, daily subcutaneous injection (0.1 ml volume) of vehicle alone or 5 μg peptide per mouse for five consecutive days. Pigmentation and hair coverage scores were determined pretreatment and 1, 4, 8 and 16 weeks after the last treatment. Hair growth and pigmentation were determined as described in Examples 1 and 2."}, "young CRF-OE mice [3]": {"system": "young CRF-OE mice", "assay": "Astressin B fragments, prevention of hair loss in young CRF-OE mice (Example 9)", "assay_type": "in vivo", "conditions": "5 μg sc or ip x 5 days, all time points", "method": "CRF-OE mice similarly injected with 0.1 ml saline alone (or 5 μg astressin 2B in 0.1 ml saline) are used as negative controls. Astressin B fragments are as described in Example 8."}, "young CRF-OE mice [4]": {"system": "young CRF-OE mice", "conditions": "mouse, in vivo", "method": "Each subcutaneous injection is given in a single puncture located along or about the midline of the back. Age-matched CRF-OE mice similarly injected with 0.1 ml vehicle alone are used as negative controls. Astressin B fragments are as described in Example 8. Alternatively, topical astressin B can be applied to the mouse's back, for example 0.05 mg, 0.5 mg, 5 mg, 50 mg, or 500 mg of an astressin B fragment once daily for at least five consecutive days\nHair growth (or hair loss) is assessed using the hair growth scale described in Example 1. The general conditions of treated and control mice, such as weight, back skin thickness, hair luster, skin wounds and indurations, are noted."}, "ACTH release": {"system": "ACTH release", "conditions": "adrenalectomized rats; similar doses; Rivier et al. 1999; cited from earlier work"}, "[5]": {"conditions": "sc 5 μg/mouse/day x 5 days, adult CRF-OE mice, Week 0 (before injection)"}, "[6]": {"conditions": "sc 5 μg/mouse/day x 5 days, adult CRF-OE mice, Week 1 after last injection"}, "[7]": {"conditions": "sc 5 μg/mouse/day x 5 days, adult CRF-OE mice, Week 0 (before injection), female mice"}, "[8]": {"conditions": "sc 5 μg/mouse/day x 5 days, adult CRF-OE mice, Week 0 (before injection), male mice"}, "[9]": {"conditions": "sc 5 μg/mouse/day x 5 days, adult CRF-OE mice, Week 1 after last injection, female mice"}, "[10]": {"conditions": "sc 5 μg/mouse/day x 5 days, adult CRF-OE mice, Week 1 after last injection, male mice"}},
  "note": "Several values for one entry are separate records, joined by “and”; a condition that tells them apart may be missing. Equal entries are not always repeated.",
  "data": [
    {"substance": "cyclo(31-34)[DPhe11, His12, CαMeLeu13,39, Nle17, Glu31, Lys34]Ac-Sau(8-40) [Astressin 2B, reference compound]", "values": [
      {"measurement": "Mice that grew significant amounts of hair", "setting": "CRF-OE mice; sc 5 μg/mouse/day x 5 days, adult CRF-OE mice", "value": 0, "unit": "%"},
      {"measurement": "Back Hair Growth Score (BK)", "setting": "CRF-OE mice; [5]", "value": "0 (2×) and 5"},
      {"measurement": "Skin pigmentation (Pg) score", "setting": "CRF-OE mice; [5]", "value": 0},
      {"measurement": "Back Hair Growth Score (BK)", "setting": "CRF-OE mice; [6]", "value": 0},
      {"measurement": "Skin pigmentation (Pg) score", "setting": "CRF-OE mice; [6]", "value": "1 and 2 (2×)"},
      {"measurement": "Back Hair Growth Score (BK)", "setting": "CRF-OE mice; sc 5 μg/mouse/day x 5 days, adult CRF-OE mice, Week 4 after last injection", "value": 0},
      {"measurement": "Hair follicle morphology", "setting": "[1]", "value": "did not have the normal morphology found in wild-type mice"},
      {"measurement": "Skin thickness or hair follicle numbers versus wild type mice", "setting": "[1]", "value": "no significant differences"},
      {"measurement": "Back Hair Score (BK)", "setting": "young CRF-OE mice [2]; Before (Week 0)", "value": 9},
      {"measurement": "Skin pigmentation (Pg) score", "setting": "young CRF-OE mice [2]; Before (Week 0)", "value": 0},
      {"measurement": "Back Hair Score (BK)", "setting": "young CRF-OE mice [2]; Week 1", "value": 9},
      {"measurement": "Ventral Abdomen Hair Score (VAb)", "setting": "young CRF-OE mice [2]; Week 16", "value": 2.5},
      {"measurement": "Induction of skin pigmentation", "setting": "young CRF-OE mice [2]", "value": "moderate induction of skin pigments"},
      {"measurement": "Hair loss / development of alopecia", "setting": "young CRF-OE mice [2]", "value": "lost hair and developed full alopecia"},
      {"measurement": "Hair in the test area", "setting": "young CRF-OE mice [3]", "value": "develop ultimately alopecia in the test area"}
    ]},
    {"substance": "(cyclo 30-33)[DPhe12, Nle21,38, Cml27,40, Glu30, Lys33]Ac-h/rCRF9-41 [Astressin B]", "values": [
      {"measurement": "Mice responding with increased pigmentation and hair growth", "setting": "CRF-OE mice; female CRF-OE mice, 8 out of 9, sc", "value": 89, "unit": "%"},
      {"measurement": "Mice responding with increased pigmentation and hair growth", "setting": "CRF-OE mice; male CRF-OE mice, 4 out of 4, sc", "value": 100, "unit": "%"},
      {"measurement": "Back Hair Growth Score (BK)", "setting": "CRF-OE mice; [7]", "value": "0 (5×) and 1"},
      {"measurement": "Skin pigmentation (Pg) score", "setting": "CRF-OE mice; [7]", "value": 0},
      {"measurement": "Back Hair Growth Score (BK)", "setting": "CRF-OE mice; [8]", "value": "0 (2×) and 1 (2×)"},
      {"measurement": "Skin pigmentation (Pg) score", "setting": "CRF-OE mice; [8]", "value": 0},
      {"measurement": "Back Hair Growth Score (BK)", "setting": "CRF-OE mice; [9]", "value": "2 (5×) and 1"},
      {"measurement": "Skin pigmentation (Pg) score", "setting": "CRF-OE mice; [9]", "value": "2 and 8 (2×) and 10 and 0 and 7"},
      {"measurement": "Back Hair Growth Score (BK)", "setting": "CRF-OE mice; [10]", "value": "2 (2×) and 1 (2×)"},
      {"measurement": "Skin pigmentation (Pg) score", "setting": "CRF-OE mice; [10]", "value": "10 (2×) and 7 and 4"},
      {"measurement": "Back Hair Growth Score (BK)", "setting": "CRF-OE mice; sc 5 μg/mouse/day x 5 days, adult CRF-OE mice, Week 4 after last injection, female mice", "value": "2 and 8 (2×) and 9 (2×) and 0"},
      {"measurement": "Back Hair Growth Score (BK)", "setting": "CRF-OE mice; sc 5 μg/mouse/day x 5 days, adult CRF-OE mice, Week 4 after last injection, male mice", "value": "8 and 9 and 7 and 6"},
      {"measurement": "Hair growth maintained post treatment", "setting": "CRF-OE mice; sc, adult CRF-OE mice", "value": "at least 4 weeks"},
      {"measurement": "Onset of hair growth", "setting": "CRF-OE mice; sc, adult CRF-OE mice, FIG. 1B", "value": "as early as one week after the last injection"},
      {"measurement": "Hair growth coverage", "setting": "CRF-OE mice; sc, range over treated adult CRF-OE mice", "value": "20-90%"},
      {"measurement": "Hair growth substantially maintained without subsequent treatment", "setting": "CRF-OE mice; two adult CRF-OE mice observed for an extended period, post treatment", "value": "up to 4 months"},
      {"measurement": "Hair follicle morphology", "setting": "[1]", "value": "more developed and defined in structure"},
      {"measurement": "Skin thickness or hair follicle numbers versus wild type mice", "setting": "[1]", "value": "no significant differences"},
      {"measurement": "Average depth of hair follicles", "setting": "[1]; treated adult CRF-OE mice (FIG. 3B, 4 weeks after last sc treatment), not significantly different from wild type", "value": "0.42±0.05", "unit": "mm"},
      {"measurement": "Mice with dark pigmentation of the skin", "setting": "young CRF-OE mice [2]; 1 week after the last injection, fraction of mice", "value": "5/5"},
      {"measurement": "Mice with little or less hair loss (as compared to vehicle-treated subjects)", "setting": "young CRF-OE mice [2]; by 4, 8 and 16 weeks after the last injection, fraction of mice", "value": "4/5"},
      {"measurement": "Skin pigmentation (Pg) score", "setting": "young CRF-OE mice [2]; Before (Week 0)", "value": 0},
      {"measurement": "Ventral Abdomen Hair Score (VAb)", "setting": "young CRF-OE mice [2]; Week 4", "value": 10},
      {"measurement": "Induction of skin pigmentation", "setting": "young CRF-OE mice [2]", "value": "induced skin pigmentation within one week after the final injection"},
      {"measurement": "Hair loss / development of alopecia", "setting": "young CRF-OE mice [2]", "value": "remained protected from developing full alopecia"},
      {"measurement": "Hair loss / development of alopecia", "setting": "young CRF-OE mice [2]; listed as astressin 1", "value": "started to lose hair gradually 2 months after treatment"},
      {"measurement": "General conditions of treated mice", "setting": "young CRF-OE mice [4]", "value": "well and substantially the same"},
      {"measurement": "Duration of inhibition of elevated ACTH release", "setting": "ACTH release", "value": "over 12 hours"}
    ]}
  ]
}
